Where two headings read alike, the source gives them in different places. Marks after values point to notes of the source that are not given here.
What was measured:
[1] = tested on: Lung granule fraction containing lysosomes from male Wistar rats; parameters: method as in ref (6) (a number printed in a supplementary file, which may have a reference list of its own: not looked up in the article's list); conditions: NH4Cl 10 mM, drug 1 µM, 10 min; ref (6); cited from earlier work
[2] = tested on: Lung tissue slices from male Wistar rats; parameters: method as in ref (14) (a number printed in a supplementary file, which may have a reference list of its own: not looked up in the article's list); conditions: monensin 10 µM, drug 5 µM, 60 min, ref (14); cited from earlier work
[3] = tested on: Lung tissue slices from male Wistar rats; parameters: method as in ref (8) (a number printed in a supplementary file, which may have a reference list of its own: not looked up in the article's list); conditions: NH4Cl 20 mM, drug 5 µM, 60 min, ref (8); cited from earlier work
[4] = tested on: Liver tissue slices from male Wistar rats; parameters: method as in ref (8) (a number printed in a supplementary file, which may have a reference list of its own: not looked up in the article's list); conditions: NH4Cl 20 mM, drug 5 µM, 60 min, ref (8); cited from earlier work
[5] = tested on: Liver tissue slices from male Wistar rats; parameters: method as in ref (14) (a number printed in a supplementary file, which may have a reference list of its own: not looked up in the article's list); conditions: monensin 10 µM, drug 5 µM, 60 min, ref (14); cited from earlier work
[6] = tested on: Liver tissue slices from male Wistar rats; parameters: method as in ref (9) (a number printed in a supplementary file, which may have a reference list of its own: not looked up in the article's list); conditions: drug 5 µM, 60 min, ref (9), cited from earlier work; for Reduction in total uptake (%): NH4Cl 20 mM
[7] = tested on: Lung tissue slices from male Wistar rats; parameters: method as in ref (5) (a number printed in a supplementary file, which may have a reference list of its own: not looked up in the article's list); conditions: NH4Cl 20 mM, drug 5 µM, 60 min, ref (5); cited from earlier work
[8] = tested on: Lung tissue slices from male Wistar rats; parameters: method as in ref (9) (a number printed in a supplementary file, which may have a reference list of its own: not looked up in the article's list); conditions: drug 5 µM, 60 min, ref (9), cited from earlier work; for Reduction in total uptake (%): NH4Cl 20 mM
[9] = Physicochemical properties, experimental literature values (Table I); conditions: classification in Table I
[10] = cited from earlier work
NR8383 cells [11] = assay: Drug uptake in NR8383 at 37 and 4°C (CLuptake, CLdiff, Kp); conditions: NR8383, 5 μM; for Contribution of passive (%): CLdiff relative to CLuptake
Experimental: (§1) The studies were carried out in a 24-well plate format and the in vitro conditions were optimised in terms of cell detachment method from culture flasks, coating type of 24-well plates, seeding density, culturing time and drug incubation time points. Briefly, for cell detachment, gentle scraping versus Mg^2+-Ca^2+ free DPBS treatment of cells in culture flasks were tested. Considering the semi-adherent nature of AMs, cell seeding into non-coated, collagen-I and poly-D-lysine coated 24-well plates was investigated for cell attachment, distribution in the wells and detachment following DPBS washes during the uptake experiments. In addition, seeding densities of 0.36 and 0.72 × 10^6 cells per well were assessed with respect to cell attachment, confluency following culture (plating efficiency) and potential cell detachment following DPBS washes. Culturing time ranging from 4 to 24 h was investigated for optimal cell attachment before carrying out uptake experiments. Uptake rate and Kp data were normalised by cell number determined indirectly by measuring the amount of protein in samples by bicinchoninic acid (BCA) protein assay (Thermo Scientific, Loughborough, UK). Following the optimisation, detachment of NR8383 from cell culture flasks was performed by gentle scraping prior to cell counting and seeding into collagen-I coated 24-well plates at 0.5 × 10^6 cells per well. Cells were cultured for 16 h at 37°C, 5% CO2 (CO2 incubator, MCO-17AIC, Sanyo Biomedical, Loughborough, UK) before uptake studies performed over 1 to 10 min period.
(§2) The drug uptake in NR8383 corresponding to these conditions was described by total uptake (CLuptake) and passive diffusion (CLdiff) clearance terms, respectively. […] Substrate solutions were prepared by dilution of the stock solutions in DPBS resulting in final DMSO content < 1%. Uptake studies were performed in the presence of 1 mM ABT, a nonspecific P450 inhibitor, in order to avoid any potential impact of phase I metabolism. […] Following microscopy, the CGM was removed, cells were washed twice with 800 μL of either pre-warmed or ice-cold DPBS (for experiments at 37 and 4°C, respectively) and pre-incubation with 500 μL of pre-warmed or ice-cold ABT/DPBS was carried out for 20 min. Where ABT pre-treatment was not necessary, cell monolayers were treated with 500 μL of DPBS only. Once pre-incubation buffer was removed from the cell monolayers, incubations were started by addition of 400 μL of substrate solution (pre-warmed or ice-cold) in each well. Each substrate was incubated with the cells for 1, 2, 5 and 10 min and each time point at 37°C and 4°C. For 37°C experiments, incubation was carried out on a dry heater block maintained at 37°C throughout the experiment (Tecam Dri-block DB-3, Tecam, Princeton, NJ) and for 4°C experiments, the procedure was carried out on ice. Incubation with substrate was stopped by removal of the media with drug solution and washing the monolayers three times with 800 μL ice-cold DPBS. The back-diffusion of the drug from the cell into the medium was considered to be negligible under these conditions. The removed incubation media were retained for the measurement of drug medium concentrations and subsequent determination of Kp for each drug. The cells were lysed by addition of 200 μL ice-cold deionised water; cell lysates were kept at −20°C overnight and then processed further for LC-MS/MS analysis. Experiments were performed on three or more separate occasions for each drug investigated. […] The amount of protein per well was measured using a BSA calibration curve and absorbances read at 562 nm (S22 Boeco UV-Visible Spectrophotometer, Hamburg, Germany).

[12] = as above; conditions: rat, NR8383 cells; for Kp at 10 min, 5 μM: Kp (cell-to-medium concentration ratio), NR8383, 5 μM, 37°C
Experimental: as §1, §2

NR8383 cells [13] = assay: Lysosomal sequestration studies in NR8383 with NH4Cl, monensin and nigericin; conditions: for % Reduction in Kp by NH4Cl: NH4Cl 20 mM; for reduction in Kp in the presence of chemical agents (summary in Discussion): NR8383, NH4Cl, monensin, nigericin
Experimental: (§3) The extent of accumulation of drugs in lysosomes was assessed using the same uptake methodology, as described above in the absence and presence of NH4Cl and ionophores, monensin and nigericin. […] In addition, a range of incubation conditions was explored, including pre-incubation and co-incubation alone and combined together. Once the conditions were optimised, further experiments were performed with 20 mM NH4Cl co-incubated with investigated drugs. […] For incubations with monensin and nigericin, all drugs were prepared at 5 μM concentration and the incubations were carried out for 5 min (single time point). Following the treatment of the cell monolayers with drug alone or drug with the agents mentioned, incubations were stopped by washing of the cells with ice-cold DPBS as described above, followed by cell lysis in deionised water. All incubations were carried out in duplicate and experiments were performed for three separate occasions. The removed incubation media were retained for the measurement of drug concentrations and subsequent determination of Kp for each compound. Analysis of samples in LC-MS/MS was performed after cells were kept at −20°C overnight.
(§4) Kp and CLuptake were determined as described above for each drug both under control condition and in the presence of a chemical agent affecting the pH gradient between cytosol and lysosomes. The reduction in Kp and CLuptake of each drug in the presence of the chemical agents was expressed as a percentage relative to control and used as an indicator of the extent of lysosomal sequestration. A 50% reduction in both parameters was set as a cut-off for lysosomal accumulation, while also taking into account the physicochemical properties of the compounds (Table I) and the uncertainty associated with the experimental data.
(§5) The in vitro parameters were calculated on at least three separate occasions and the mean data were reported. When assessing the extent of lysosomal sequestration, the control and chemical agent treated cells were compared using the two-tailed, paired t-test in order to determine statistically significant difference between the two conditions. Values were reported as significant when p < 0.05.

[14] = as above; conditions: rat, NR8383 cells; for Kp at 10 min, 5 μM: NR8383, 5 μM drug; for Kp at 10 min, 20 µM: NR8383, 20 µM drug
Experimental: as §3, §4, §5

[15] = tested on: Lung tissue slices from male Sprague-Dawley rats; conditions: monensin 10 µM, desipramine, diazepam 5 µM, chloroquine, thiopental 10 µM, 60 min, ref (3); cited from earlier work
[16] = tested on: NR8383 cell line and granule fraction (containing lysosomes); conditions: NH4Cl 10 mM, drug 50 µM, ref (12), cited from earlier work
[17] = tested on: Brain slices from male Wistar rats; parameters: method as in ref (10) (a number printed in a supplementary file, which may have a reference list of its own: not looked up in the article's list); conditions: drug 5 µM, 60 min, ref (10), cited from earlier work
[18] = experimental value, ref ([21])-([30]) per drug, Table I
[19] = Kp + NH4Cl, 20 mM NH4Cl co-incubated, 10 min

Question: Which “Reduction in total uptake (%)” value [1] does the source give for `CC(CN1c2ccccc2Sc2ccccc21)N(C)C` (stereo not shown) [Promethazine] here?
Answer: The value was 17%.

Question: Which “Reduction of total uptake (%)” value [2] does the source give for `CN[C@H]1CC[C@@H](c2ccc(Cl)c(Cl)c2)c2ccccc21` [Sertraline] here?
Answer: The value was 50%.

Question: What about the “Reduction in total uptake (%)” value [3] of the same compound?
Answer: The value was 40%.

Question: And the “Reduction in total uptake (%)” value [4]?
Answer: Its value is 42%.

Question: And the “Reduction of total uptake (%)” value [5]?
Answer: Its value is 19%.

Question: And the “Reduction in total uptake (%)” value [6]?
Answer: The value was 29%.

Question: What about the “Reduction in total uptake (%)” value [7] of the same compound?
Answer: The value was 42%.

Question: And the “Reduction in total uptake (%)” value [8]?
Answer: The value was 45%.

Question: For `CC(C)(C)NCC(O)c1cc(O)cc(O)c1` (stereo not shown) [Terbutaline], which “Acid–base Property” value [9] is on record?
Answer: The value was “Base”.

Question: What about the LogD7.4 ([10]; Average value of two studies, ref ([27],[28])) of the same compound?
Answer: The LogD7.4 was −1.50 ^b.

Question: And the “pKa_a (acidic pKa)” value [10, 18]?
Answer: Its value is 8.60.

Question: What about the “pKa_b (basic pKa)” value [10, 18] of the same compound?
Answer: The value was 9.90.

Question: And the “Kp (cell-to-medium concentration ratio)” value (NR8383 cells [11]; 37°C, 10 min)?
Answer: Its value is 0.69 ± 0.16.

Question: And the “Contribution of passive (%)” value (NR8383 cells [11])?
Answer: Its value is 47.6%.

Question: What about the hepatocyte CLint at 5 μM [12] of the same compound?
Answer: The hepatocyte CLint at 5 μM was < 1 µL/min/1e6 cells.

Question: What about the Kp at 10 min, 5 μM [12] of the same compound?
Answer: The Kp at 10 min, 5 μM was ~1.

Question: What about the “% Reduction in Kp by NH4Cl” value (NR8383 cells [13]; NR8383, 5 μM drug) of the same compound?
Answer: Its value is 21 ± 5.0%.

Question: What about the “% Reduction in Kp by NH4Cl” value (NR8383 cells [13]; NR8383, 20 µM drug) of the same compound?
Answer: Its value is 22^ a %.

Question: What about the “% Reduction in CLuptake by NH4Cl (20 mM)” value (NR8383 cells [13]; NR8383, at 5 µM drug) of the same compound?
Answer: Its value is 15 ± 15%.

Question: And the “% Reduction in CLuptake by NH4Cl (20 mM)” value (NR8383 cells [13]; NR8383, at 20 µM drug)?
Answer: Its value is 36 ± 23%.

Question: What about the “reduction in Kp in the presence of chemical agents (summary in Discussion)” value (NR8383 cells [13]) of the same compound?
Answer: The value was 20–40%.

Question: And the Kp at 10 min, 5 μM [14, 19]?
Answer: The Kp at 10 min, 5 μM was 0.72 ± 0.31.

Question: And the Kp at 10 min, 20 µM ([14]; Kp + NH4Cl, 20 mM NH4Cl)?
Answer: Its Kp at 10 min, 20 µM is 0.56 ± 0.29.

Question: What about the Kp at 10 min, 5 μM ([14]; Kp Control, control) of the same compound?
Answer: The Kp at 10 min, 5 μM was 0.92 ± 0.39.

Question: And the Kp at 10 min, 20 µM ([14]; Kp Control, control)?
Answer: The Kp at 10 min, 20 µM was 0.79 ± 0.46.

Question: For `CCCC(C)C1(CC)C(=O)NC(=S)NC1=O` (stereo not shown) [Thiopental], which “Reduction of total uptake (%)” value [15] is on record?
Answer: The value was 10%.

Question: Which “Acid–base Property” value [9] does the source give for `CCCC1O[C@@H]2C[C@H]3[C@@H]4CCC5=CC(=O)C=C[C@]5(C)[C@H]4[C@@H](O)C[C@]3(C)[C@]2(C(=O)CO)O1` (stereo partly shown) [Budesonide] here?
Answer: The value was “Neutral”.

Question: And the “Contribution of passive (%)” value (NR8383 cells [11])?
Answer: The value was 97.2%.

Question: And the Kp at 10 min, 5 μM [12]?
Answer: Its Kp at 10 min, 5 μM is 37.6 ± 11.4.

Question: And the “% Reduction in Kp by NH4Cl” value (NR8383 cells [13]; NR8383, 5 μM drug)?
Answer: The value was 10 ± 7.8%.

Question: What about the “% Reduction in Kp by NH4Cl” value (NR8383 cells [13]; NR8383, 20 µM drug) of the same compound?
Answer: The value was 6.6 ± 4.1%.

Question: What about the “% Reduction in CLuptake by NH4Cl (20 mM)” value (NR8383 cells [13]; NR8383, at 5 µM drug) of the same compound?
Answer: The value was 18 ± 15%.

Question: What about the “reduction in Kp in the presence of chemical agents (summary in Discussion)” value (NR8383 cells [13]) of the same compound?
Answer: The value was < 15%.

Question: And the Kp at 10 min, 5 μM [14, 19]?
Answer: Its Kp at 10 min, 5 μM is 28.1 ± 7.12.

Question: What about the Kp at 10 min, 20 µM ([14]; Kp + NH4Cl, 20 mM NH4Cl) of the same compound?
Answer: The Kp at 10 min, 20 µM was 31 ± 12.

Question: What about the Kp at 10 min, 5 μM ([14]; Kp Control, control) of the same compound?
Answer: The Kp at 10 min, 5 μM was 31.5 ± 8.46.

Question: What about the Kp at 10 min, 20 µM ([14]; Kp Control, control) of the same compound?
Answer: The Kp at 10 min, 20 µM was 34 ± 12.5.

Question: What does the source list for `CC[C@H]1OC(=O)[C@H](C)[C@@H](O[C@H]2C[C@@](C)(OC)[C@@H](O)[C@H](C)O2)[C@H](C)[C@@H](O[C@@H]2O[C@H](C)C[C@H](N(C)C)[C@H]2O)[C@](C)(O)C[C@@H](C)CN(C)[C@H](C)[C@@H](O)[C@]1(C)O` [Azithromycin]?
Answer: Reduction in total uptake (%) ([16]; Granule, after subcellular fractionation, 30 min): 72%; Reduction in total uptake (%) ([16]; before subcellular fractionation, azithromycin 120 min, clarithromycin 60 min): 97%

Question: Which results are given for `CO[C@H]1/C=C/O[C@@]2(C)Oc3c(C)c(O)c4c(O)c(c(/C=N/N5CCN(C)CC5)c(O)c4c3C2=O)NC(=O)/C(C)=C\C=C\[C@H](C)[C@H](O)[C@@H](C)[C@@H](O)[C@@H](C)[C@H](OC(C)=O)[C@@H]1C` [Rifampicin]?
Answer: Acid–base Property [9]: Zwitterion; LogD7.4 [10, 18]: 0.3; pKa_b (basic pKa) [10, 18]: 6.70

Question: For `CC(C)=CCN1CCC2(C)c3cc(O)ccc3CC1C2C` (stereo not shown) [Pentazocine], which “Reduction in total uptake (%)” value [1] is on record?
Answer: Its value is 77%.

Question: For `CN1CCN(CCCN2c3ccccc3Sc3ccccc32)CC1` [Perazine], which “Reduction in total uptake (%)” value ([17]; NH4Cl 20 mM) is on record?
Answer: The value was 55%.

Question: And the “Reduction of total uptake (%)” value ([17]; monensin 10 µM)?
Answer: The value was 55%.

Question: And the “Reduction in total uptake (%)” value [6]?
Answer: The value was 61%.

Question: What about the “Reduction of total uptake (%)” value ([6]; monensin 10 µM) of the same compound?
Answer: The value was 65%.

Question: What about the “Reduction in total uptake (%)” value [8] of the same compound?
Answer: The value was 58%.

Question: What about the “Reduction of total uptake (%)” value ([8]; monensin 10 µM) of the same compound?
Answer: The value was 71.6%.
